The source of these data is BindingDB's records for patent US20250197396 (Lieber Institute, 2025).

Where only a bound is given, the exact number is not on record here.

As usually defined, the IC50 is the midpoint of a concentration-inhibition curve. Higher therefore signals lower potency.

The assay has as its target Inositol hexakisphosphate kinase 1 (Homo sapiens, UniProt Q92551). Nature of the assay: Not found.
Text: Not found

Sequence of Inositol hexakisphosphate kinase 1 (Q92551 whole entry): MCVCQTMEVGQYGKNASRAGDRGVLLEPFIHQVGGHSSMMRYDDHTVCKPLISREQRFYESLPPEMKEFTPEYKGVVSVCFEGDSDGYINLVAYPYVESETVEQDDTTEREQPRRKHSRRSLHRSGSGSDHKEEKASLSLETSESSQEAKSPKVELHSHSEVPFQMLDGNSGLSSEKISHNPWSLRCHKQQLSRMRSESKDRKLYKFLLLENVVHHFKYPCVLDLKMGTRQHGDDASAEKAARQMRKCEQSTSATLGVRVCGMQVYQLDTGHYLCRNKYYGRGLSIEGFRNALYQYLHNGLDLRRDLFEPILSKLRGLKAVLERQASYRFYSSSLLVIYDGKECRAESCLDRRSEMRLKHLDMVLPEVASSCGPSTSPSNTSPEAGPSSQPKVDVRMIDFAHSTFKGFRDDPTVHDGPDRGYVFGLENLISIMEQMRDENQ

Regarding `O=C(O)c1ccc2c(c1)C1(CCN(Cc3ncc(Cl)cc3Cl)CC1)C(=O)N2` [US20250197396, Compound 18a], the IC50 was < 300 nM.
